The text below walks through data of paper PMC6680637, “In Silico Repositioning of Cannabigerol as a Novel Inhibitor of the Enoyl Acyl Carrier Protein (ACP) Reductase (InhA)” (Molecules, 2019).

This experiment addresses T1, Enoyl acyl carrier protein (ACP) reductase (InhA) (Mycobacterium tuberculosis, UniProt P9WGR1).
T1 construct: wild type InhA
As to the kind of experiment: enzyme kinetic assay, NADH oxidation at […] nm with trans-2-dodecenoyl-CoA substrate. The experiment is classed as biochemical.

The term IC50 denotes the concentration at which inhibition is half-maximal. The low end stands for greater potency in that assay, the high end for weaker potency in that assay.

T1 sequence (P9WGR1 whole entry, looked up): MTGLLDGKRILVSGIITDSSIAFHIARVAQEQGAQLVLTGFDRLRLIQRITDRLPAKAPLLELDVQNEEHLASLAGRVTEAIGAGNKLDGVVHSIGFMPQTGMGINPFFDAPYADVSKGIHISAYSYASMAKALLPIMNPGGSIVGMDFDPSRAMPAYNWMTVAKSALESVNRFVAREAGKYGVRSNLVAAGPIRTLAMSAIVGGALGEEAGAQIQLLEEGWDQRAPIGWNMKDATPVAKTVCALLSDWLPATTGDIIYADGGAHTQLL

As to `CCCCCc1cc(O)c(C/C=C(\C)CCC=C(C)C)c(O)c1` [CBG, Cannabigerol], the IC50 was 5.2 ± 0.1 µM.
